The values that follow are results of earlier work, collected in patent US10694745B2, “Method for controlling rust” (UPL LIMITED, priority 2013, dated 2020).

One series relates to Phakopsora pachyrhizi. Particulars: single fungicide.
The subject of the next series is soybean. The following applies: in vivo.

As to `CO/C=C(/C(=O)OC)c1ccccc1Oc1cc(Oc2ccccc2C#N)ncn1` [Azoxystrobin], the “control of soybean rust” value in the series on Phakopsora pachyrhizi is on record as “good control”.
Regarding `O=C(Nc1ccccc1-c1ccc(Cl)cc1)c1cccnc1Cl` [Boscalid], the “control of soybean rust” value in the series on Phakopsora pachyrhizi was “moderate control”.
As to `c1ccc2[nH]c(-c3cscn3)nc2c1` [Thiabendazole], in the series on soybean, the “phytotoxicity” value is listed as “phytotoxic”.
